Laboratory results reported in PubChem BioAssay AID2060510 (Molecular Pharmacology Branch, DTP, NCI, 2025).

Test system: 439559-082-T-J2-PDC spheroids viability
Assay: Anticancer human tumor 439559-082-T-J2-PDC patient-derived colon adenocarcinoma cell line growth inhibition [GQUAD]
Settings: for IC50: curve of first compound; for viability, T/C: stronger effect = lower value
How it was run: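 Multi-cell-type spheroids of tumor cells with HUVEC and mesenchymal stem cells, treated with drug combinations. Concentrations descend in half-log steps from near clinical Cmax, or from 10 microM where Cmax is unknown; viability read-out.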

[1] = second compound 0.0316 µM, first compound 0.0316 µM
[2] = second compound 0.0316 µM, first compound 0.1 µM
[3] = second compound 0.0316 µM, first compound 0.316 µM
[4] = second compound 0.0316 µM, first compound 1 µM
[5] = second compound 0.0316 µM, first compound 3.16 µM
[6] = second compound 0.0316 µM, first compound 10 µM
[7] = second compound 0.1 µM, first compound 0.0316 µM
[8] = second compound 0.1 µM, first compound 0.1 µM
[9] = second compound 0.1 µM, first compound 0.316 µM
[10] = second compound 0.1 µM, first compound 1 µM
[11] = second compound 0.1 µM, first compound 3.16 µM
[12] = second compound 0.1 µM, first compound 10 µM
[13] = second compound 0.316 µM, first compound 0.0316 µM
[14] = second compound 0.316 µM, first compound 0.1 µM
[15] = second compound 0.316 µM, first compound 0.316 µM
[16] = second compound 0.316 µM, first compound 1 µM
[17] = second compound 0.316 µM, first compound 3.16 µM
[18] = second compound 0.316 µM, first compound 10 µM
[19] = second compound 1 µM, first compound 0.0316 µM
[20] = second compound 1 µM, first compound 0.1 µM
[21] = second compound 1 µM, first compound 0.316 µM
[22] = second compound 1 µM, first compound 1 µM
[23] = second compound 1 µM, first compound 3.16 µM
[24] = second compound 1 µM, first compound 10 µM
[25] = second compound 3.16 µM, first compound 0.0316 µM
[26] = second compound 3.16 µM, first compound 0.1 µM
[27] = second compound 3.16 µM, first compound 0.316 µM
[28] = second compound 3.16 µM, first compound 1 µM
[29] = second compound 3.16 µM, first compound 3.16 µM
[30] = second compound 3.16 µM, first compound 10 µM
[31] = second compound 10 µM, first compound 0.0316 µM
[32] = second compound 10 µM, first compound 0.1 µM
[33] = second compound 10 µM, first compound 0.316 µM
[34] = second compound 10 µM, first compound 1 µM
[35] = second compound 10 µM, first compound 3.16 µM
[36] = second compound 10 µM, first compound 10 µM
[37] = second compound 0.0316 µM, first compound 0.000999 µM
[38] = second compound 0.0316 µM, first compound 0.00316 µM
[39] = second compound 0.0316 µM, first compound 0.00999 µM
[40] = second compound 0.0316 µM, first compound 0.0999 µM
[41] = second compound 0.1 µM, first compound 0.000999 µM
[42] = second compound 0.1 µM, first compound 0.00316 µM
[43] = second compound 0.1 µM, first compound 0.00999 µM
[44] = second compound 0.1 µM, first compound 0.0999 µM
[45] = second compound 0.316 µM, first compound 0.000999 µM
[46] = second compound 0.316 µM, first compound 0.00316 µM
[47] = second compound 0.316 µM, first compound 0.00999 µM
[48] = second compound 0.316 µM, first compound 0.0999 µM
[49] = second compound 1 µM, first compound 0.000999 µM
[50] = second compound 1 µM, first compound 0.00316 µM
[51] = second compound 1 µM, first compound 0.00999 µM
[52] = second compound 1 µM, first compound 0.0999 µM
[53] = second compound 3.16 µM, first compound 0.000999 µM
[54] = second compound 3.16 µM, first compound 0.00316 µM
[55] = second compound 3.16 µM, first compound 0.00999 µM
[56] = second compound 3.16 µM, first compound 0.0999 µM
[57] = second compound 10 µM, first compound 0.000999 µM
[58] = second compound 10 µM, first compound 0.00316 µM
[59] = second compound 10 µM, first compound 0.00999 µM
[60] = second compound 10 µM, first compound 0.0999 µM
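Note: spheroids exposed to the agents for 7 days before readout.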
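Throughout, for viability, T/C: percent of luminescence signal in DMSO vehicle wells taken as 100% viability.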

`C=CC(=O)N1CCN(c2nc(=O)n(-c3c(C)ccnc3C(C)C)c3nc(-c4c(O)cccc4F)c(F)cc23)C(C)C1` (stereo not drawn) + CN(C)c1ccc(Nc2c3ccc(NC(=O)CCN4CCCC4)cc3nc3cc(NC(=O)CCN4CCCC4)ccc23)cc1 was tested, and the IC50 (second compound 0.0316 µM) was greater than 10 µM, the IC50 (second compound 0.1 µM) was greater than 10 µM and the IC50 (second compound 0.316 µM) was greater than 10 µM. It also gave an IC50 (second compound 1 µM) greater than 10 µM, an IC50 (second compound 3.16 µM) greater than 10 µM and an IC50 (second compound 10 µM) greater than 10 µM. The viability, T/C [1] was 103%, the viability, T/C [2] was 91.4% and the viability, T/C [3] was 93.6%. The viability, T/C [4] was 104%, the viability, T/C [5] was 111% and the viability, T/C [6] was 95.4%. For the same compound, the viability, T/C [7] was 105%, the viability, T/C [8] was 92.2% and the viability, T/C [9] was 104%. The viability, T/C [10] was 97.6%, the viability, T/C [11] was 111% and the viability, T/C [12] was 104%. For the same compound, the viability, T/C [13] was 104%, the viability, T/C [14] was 102% and the viability, T/C [15] was 91.6%. The viability, T/C [16] was 114%, the viability, T/C [17] was 106% and the viability, T/C [18] was 110%. For the same compound, the viability, T/C [19] was 112%, the viability, T/C [20] was 96.3% and the viability, T/C [21] was 105%. The viability, T/C [22] was 97.6%, the viability, T/C [23] was 120% and the viability, T/C [24] was 108%. The viability, T/C [25] was 94.8%, the viability, T/C [26] was 103% and the viability, T/C [27] was 108%. For the same compound, the viability, T/C [28] was 108%, the viability, T/C [29] was 114% and the viability, T/C [30] was 108%. It also gave a viability, T/C [31] of 103%, a viability, T/C [32] of 96% and a viability, T/C [33] of 96.8%. It also gave a viability, T/C [34] of 106%, a viability, T/C [35] of 109% and a viability, T/C [36] of 100%.

With `CCc1c2c(nc3ccc(O)cc13)-c1cc3c(c(=O)n1C2)COC(=O)[C@]3(O)CC` + CN(C)c1ccc(Nc2c3ccc(NC(=O)CCN4CCCC4)cc3nc3cc(NC(=O)CCN4CCCC4)ccc23)cc1 the IC50 (second compound 0.0316 µM) was 0.163 µM, the IC50 (second compound 0.1 µM) was 0.181 µM and the IC50 (second compound 0.316 µM) was 0.207 µM. The IC50 (second compound 1 µM) was 0.179 µM, the IC50 (second compound 3.16 µM) was 0.196 µM and the IC50 (second compound 10 µM) was 0.195 µM. The viability, T/C [37] was 99.7%, the viability, T/C [38] was 88.5% and the viability, T/C [39] was 72.7%. The viability, T/C [1] was 70.1%, the viability, T/C [40] was 52.5% and the viability, T/C [3] was 43.8%. It also gave a viability, T/C [41] of 110%, a viability, T/C [42] of 91% and a viability, T/C [43] of 82.1%. For the same compound, the viability, T/C [7] was 72.6%, the viability, T/C [44] was 56.6% and the viability, T/C [9] was 42.9%. The viability, T/C [45] was 104%, the viability, T/C [46] was 93.6% and the viability, T/C [47] was 77.1%. The viability, T/C [13] was 70.5%, the viability, T/C [48] was 67.7% and the viability, T/C [15] was 40.3%. For the same compound, the viability, T/C [49] was 93.3%, the viability, T/C [50] was 85.7% and the viability, T/C [51] was 85.8%. For the same compound, the viability, T/C [19] was 69.3%, the viability, T/C [52] was 56.8% and the viability, T/C [21] was 43.9%. The viability, T/C [53] was 100%, the viability, T/C [54] was 90% and the viability, T/C [55] was 76.6%. For the same compound, the viability, T/C [25] was 64.2%, the viability, T/C [56] was 61.5% and the viability, T/C [27] was 43.2%. It also gave a viability, T/C [57] of 106%, a viability, T/C [58] of 79% and a viability, T/C [59] of 80.8%. It also gave a viability, T/C [31] of 75.4%, a viability, T/C [60] of 59.6% and a viability, T/C [33] of 41.7%.

Work on `Cc1cccc(N(C)C(=O)C2C(O)CCN2c2nc(C)cc(C(F)(F)F)c2C#N)c1` (stereo not drawn) + CN(C)c1ccc(Nc2c3ccc(NC(=O)CCN4CCCC4)cc3nc3cc(NC(=O)CCN4CCCC4)ccc23)cc1 yielded an IC50 (second compound 0.0316 µM) greater than 10 µM, an IC50 (second compound 0.1 µM) greater than 10 µM and an IC50 (second compound 0.316 µM) greater than 10 µM. It also gave an IC50 (second compound 1 µM) greater than 10 µM, an IC50 (second compound 3.16 µM) greater than 10 µM and an IC50 (second compound 10 µM) greater than 10 µM. For the same compound, the viability, T/C [1] was 102%, the viability, T/C [2] was 87.8% and the viability, T/C [3] was 97.3%. The viability, T/C [4] was 89.8%, the viability, T/C [5] was 94.5% and the viability, T/C [6] was 99.5%. For the same compound, the viability, T/C [7] was 109%, the viability, T/C [8] was 100% and the viability, T/C [9] was 94.6%. The viability, T/C [10] was 92.1%, the viability, T/C [11] was 95.5% and the viability, T/C [12] was 109%. The viability, T/C [13] was 84.5%, the viability, T/C [14] was 98.7% and the viability, T/C [15] was 101%. For the same compound, the viability, T/C [16] was 96.7%, the viability, T/C [17] was 95.2% and the viability, T/C [18] was 94.3%. The viability, T/C [19] was 96.4%, the viability, T/C [20] was 102% and the viability, T/C [21] was 97.5%. The viability, T/C [22] was 99.3%, the viability, T/C [23] was 96.6% and the viability, T/C [24] was 93.9%. For the same compound, the viability, T/C [25] was 112%, the viability, T/C [26] was 93.5% and the viability, T/C [27] was 101%. For the same compound, the viability, T/C [28] was 89.7%, the viability, T/C [29] was 107% and the viability, T/C [30] was 92.1%. For the same compound, the viability, T/C [31] was 93.6%, the viability, T/C [32] was 87.1% and the viability, T/C [33] was 100%. For the same compound, the viability, T/C [34] was 102%, the viability, T/C [35] was 94% and the viability, T/C [36] was 91.8%.

`Cn1ncnc1[C@H]1c2n[nH]c(=O)c3cc(F)cc(c23)N[C@@H]1c1ccc(F)cc1` + CN(C)c1ccc(Nc2c3ccc(NC(=O)CCN4CCCC4)cc3nc3cc(NC(=O)CCN4CCCC4)ccc23)cc1 gave an IC50 (second compound 0.0316 µM) greater than 0.316 µM, an IC50 (second compound 0.1 µM) greater than 0.316 µM and an IC50 (second compound 0.316 µM) greater than 0.316 µM. The IC50 (second compound 1 µM) was greater than 0.316 µM, the IC50 (second compound 3.16 µM) was greater than 0.316 µM and the IC50 (second compound 10 µM) was greater than 0.316 µM. For the same compound, the viability, T/C [37] was 94.6%, the viability, T/C [38] was 97% and the viability, T/C [39] was 104%. It also gave a viability, T/C [1] of 96.3%, a viability, T/C [40] of 95.9% and a viability, T/C [3] of 94.4%. For the same compound, the viability, T/C [41] was 99.6%, the viability, T/C [42] was 98.6% and the viability, T/C [43] was 90.7%. It also gave a viability, T/C [7] of 108%, a viability, T/C [44] of 94.4% and a viability, T/C [9] of 85.3%. It also gave a viability, T/C [45] of 99.6%, a viability, T/C [46] of 106% and a viability, T/C [47] of 97%. For the same compound, the viability, T/C [13] was 94.4%, the viability, T/C [48] was 93.8% and the viability, T/C [15] was 82.5%. The viability, T/C [49] was 96.8%, the viability, T/C [50] was 91.7% and the viability, T/C [51] was 96%. The viability, T/C [19] was 111%, the viability, T/C [52] was 96.8% and the viability, T/C [21] was 92.5%. The viability, T/C [53] was 101%, the viability, T/C [54] was 102% and the viability, T/C [55] was 89.6%. For the same compound, the viability, T/C [25] was 99.2%, the viability, T/C [56] was 98.1% and the viability, T/C [27] was 85.5%. The viability, T/C [57] was 104%, the viability, T/C [58] was 77.2% and the viability, T/C [59] was 91.5%. It also gave a viability, T/C [31] of 85.8%, a viability, T/C [60] of 99.6% and a viability, T/C [33] of 85%.
